Data as given in publication PMC10779222, “Copper(II) Complexes with 1-(Isoquinolin-3-yl)heteroalkyl-2-ones: Synthesis, Structure and Evaluation of Anticancer, Antimicrobial and Antioxidant Potential” (International Journal of Molecular Sciences, 2023).
≈ marks a conversion by molar mass, not a printed value. Where “and” joins values, the source holds several entries; their conditions need not be identical. Equal entries are not always repeated.

How the values were obtained:
T98G (glioblastoma) = assay: MTT cytotoxicity assay on T98G cells; type: cell-based; details: Homo sapiens, T98G; MTT, 24 h incubation; read-out: IC50 ± SD, T98G
Method: (§1) Cytotoxic activity of the investigated compounds was evaluated against T98G (glioblastoma), HepG2 (hepatoma), LS-180 (colon cancer) and A375 (melanoma) cell lines. Human normal skin fibroblasts, CCD-1059Sk (CRL-2072), were used as reference (non-cancerous) cells. All of the cell lines were obtained from American Type Culture Collection (ATCC; Manassas, VA, USA). A375, T98G and CCD-1059Sk cells were cultured in Dulbecco’s Modified Eagle’s Medium (DMEM) (Sigma Aldrich, St. Louis, MO, USA) supplemented with 10% FBS, penicillin (100 U/mL) and streptomycin (100 μg/mL). LS-180 and HepG2 cells were cultured in Eagle’s Minimum Essential Medium supplemented with 10% FBS, penicillin (100 U/mL) and streptomycin (100 μg/mL). All of the cells were maintained at 37 °C in a humidified atmosphere of 5% CO2. The compounds were dissolved in DMSO in order to obtain stock solutions. At the day of the experiment, the suspension of cells (1 × 10^5 cells/mL) was distributed onto 96-well plates at a volume of 100 μL/well. After attachment, the cells were treated with the increased concentrations of the tested compounds in medium containing 2% FBS and incubated for 24 h. Then, the medium was removed from wells, and cells were rinsed with PBS. Afterwards, 15 μL of MTT working solution (5 mg/mL in PBS) was added to each well, and the plates were incubated for 3 h. Subsequently, 100 μL of 10% SDS solution was added to each well in order to dissolve the precipitated formazan crystals. After overnight incubation at 37 °C, the absorbance of the obtained solution was measured at λ = 570 nm using a microplate reader (Epoch, BioTek Instruments, Inc., Winooski, VT, USA). At least two independent experiments were performed in triplicate. […] IC50 values of the investigated derivatives and positive control (etoposide) were calculated using the IC50 online calculator [101].

HepG2 (hepatoma) = assay: MTT cytotoxicity assay on HepG2 cells; type: cell-based, human; details: Homo sapiens, HepG2; MTT, 24 h incubation; read-out: IC50 ± SD, HepG2
Method: as §1

LS-180 (colon cancer) = assay: MTT cytotoxicity assay on LS-180 cells; type: cell-based, human; details: Homo sapiens, LS180, 24 h incubation, read-out: IC50 ± SD, LS180
Method: as §1

[1] = tested on: CCD-1059Sk (human normal skin fibroblasts); assay: MTT cytotoxicity assay on non-cancerous fibroblasts; type: cell-based; details: Homo sapiens, CCD-1059Sk, 24 h incubation, non-cancerous cells, read-out: IC50 ± SD, CCD-1059-Sk
Method: as §1

A375 (melanoma) = assay: MTT cytotoxicity assay on A375 cells; type: cell-based, human; details: Homo sapiens, A-375, 24 h incubation, read-out: IC50 ± SD, A375
Method: as §1

[2] = tested on: A375, HepG2, LS-180, T98G and CCD-1059Sk cell lines; assay: MTT cytotoxicity assay, summary statements over several cell lines; type: cell-based; details: Homo sapiens; all cell lines (A375, HepG2, LS-180, T98G, CCD-1059-Sk)
Method: as §1

[3] = ABTS radical scavenging assay; details: ±SD; 10 min, 30 °C
Method: The ABTS radical scavenging assay of samples (ligands or complexes) was performed with ascorbic acid as a positive control. Briefly, 30 μL of different concentrations of the samples, dissolved in DMSO, was mixed with 170 μL of ABTS solution (2 mM ABTS diammonium salt, 3.5 mM potassium persulfate) and completed with water to a final volume of 300 μL. ABTS solution with DMSO was used as a control. […] ABTS inhibition was calculated according to the following equation:ABTS Inhibition (%) = [(Acontrol − Asample)/Acontrol] × 100% The radical scavenging activity of the samples was shown as the IC50 value (the concentration of the analyzed samples that caused a decrease in the non-reduced form of the ABTS radical by 50%).

[4] = tested on: Candida glabrata ATCC 90030; assay: Two-fold microdilution broth method, MIC; type: cell-based; details: Nakaseomyces glabratus, ATCC90030; 35 °C, 24 h
Text: (§2) Antibacterial and antifungal activities of the free ligands L2, L3 and L4 and the corresponding copper(II) complexes C2, C3 and C4 were screened using the two-fold microdilution broth method. Minimal inhibitory concentrations (MICs) of tested compounds for the panel of reference Gram-positive bacteria, including Staphylococcus aureus ATCC 25923, Staphylococcus aureus ATCC BAA-1707, Staphylococcus epidermidis ATCC 12228, Micrococcus luteus ATCC 10240 and Bacillus cereus ATCC 10876; Gram-negative bacteria, including Salmonella Typhimurium ATCC 14028, Escherichia coli ATCC 25922, Proteus mirabilis ATCC 12453, Klebsiella pneumoniae ATCC 13883 and Pseudomonas aeruginosa ATCC 9027; and yeasts, including Candida albicans ATCC 102231, Candida parapsilosis ATCC 22019 and Candida glabrata ATCC 90030 were determined. The procedure has been described in detail before. Briefly, the solutions of tested compounds dissolved in dimethylosulfoxide (DMSO) were suspended in Mueller–Hinton broth for bacteria or Mueller–Hinton broth with 2% glucose for fungi. Then, the series of two-fold dilutions were carried out in the sterile Nunc™ MicroWell™ 96-Well Microplates (ThermoFisher Scientific Inc.), obtaining concentrations from 1000 to 7.8 mg/L in the appropriate medium. Simultaneously, the inocula of 24 h cultures of microorganisms in sterile physiological saline (0.5 McFarland standard density) were prepared and added to each well, obtaining final density of 5 × 10^5 CFU/mL for bacteria and 5 × 10^4 CFU/mL for yeasts. Proper positive (inoculum without tested compound) and negative (compound without inoculum) controls were added in each microplate. After incubation (35 °C, 24 h), the growth of microorganisms was measured spectrophotometrically at 600 nm (BioTEK ELx808, Bio-Tek Instruments, Inc., Winooski, VT, USA). MICs were marked at the lowest concentration of the compound without the growth of bacteria or fungi.

[5] = tested on: Candida albicans ATCC 102231; assay: Two-fold microdilution broth method, MIC; type: cell-based; details: Candida albicans, ATCC102231; 35 °C, 24 h
Text: as §2

[6] = tested on: Candida parapsilosis ATCC 22019; assay: Two-fold microdilution broth method, MIC; type: cell-based; details: Lodderomyces parapsilosis, ATCC22019; 35 °C, 24 h
Text: as §2

Candida = assay: Two-fold microdilution broth method, MIC, yeasts (summary); type: cell-based; details: range over the three yeast strains; read-out: MIC, anti-Candida activity
Text: Antibacterial and antifungal activities of the free ligands L2, L3 and L4 and the corresponding copper(II) complexes C2, C3 and C4 were screened using the two-fold microdilution broth method. Minimal inhibitory concentrations (MICs) of tested compounds for the panel of reference Gram-positive bacteria, including Staphylococcus aureus ATCC 25923, Staphylococcus aureus ATCC BAA-1707, Staphylococcus epidermidis ATCC 12228, Micrococcus luteus ATCC 10240 and Bacillus cereus ATCC 10876; Gram-negative bacteria, including Salmonella Typhimurium ATCC 14028, Escherichia coli ATCC 25922, Proteus mirabilis ATCC 12453, Klebsiella pneumoniae ATCC 13883 and Pseudomonas aeruginosa ATCC 9027; and yeasts, including Candida albicans ATCC 102231, Candida parapsilosis ATCC 22019 and Candida glabrata ATCC 90030 were determined. The procedure has been described in detail before. Briefly, the solutions of tested compounds dissolved in dimethylosulfoxide (DMSO) were suspended in Mueller–Hinton broth for bacteria or Mueller–Hinton broth with 2% glucose for fungi. […] After incubation (35 °C, 24 h), the growth of microorganisms was measured spectrophotometrically at 600 nm (BioTEK ELx808, Bio-Tek Instruments, Inc., Winooski, VT, USA). […]

Structure (SMILES) | IC50 ABTS [3] | MIC [4] [µg/mL] | MIC [5] [µg/mL] | MIC [6] [µg/mL] | MIC (Candida) [µg/mL] | IC50 (T98G (glioblastoma)) [µg/mL] | IC50 (HepG2 (hepatoma)) [µg/mL] | IC50 (LS-180 (colon cancer)) [µg/mL] | IC50 [1] [µg/mL] | IC50 (A375 (melanoma)) [µg/mL] | IC50 [2] [µg/mL] | melting point [°C]
COc1cc([C@@H]2c3cc4c(cc3[C@@H](O[C@@H]3O[C@@H]5CO[C@@H](C)O[C@H]5[C@H](O)[C@H]3O)[C@H]3COC(=O)[C@H]23)OCO4)cc(OC)c1O [Etoposide, etoposide, reference compound] | – | – | – | – | – | > 100 | 43.2 ± 2.75 (≈ 73.4 µM) | > 100 | 83.5 ± 3.19 (≈ 142 µM) | 10.2 ± 0.83 (≈ 17.3 µM) | – | –
O=C1NCCN1c1cc2ccccc2cn1 [L2, 1-(isoquinolin-3-yl)imidazolidin-2-one] | 82.08 ± 2.77 µg/mL (≈ 385 µM) | > 1000 | 500 (≈ 2340 µM) | 1000 (≈ 4690 µM) | – | > 200 | > 200 | > 200 | > 200 | > 200 | > 200 | 234 to 236

Further lines, with some results ahead:

IC50 ABTS [3] | MIC [4] [µg/mL] | MIC [5] [µg/mL] | MIC [6] [µg/mL] | MIC (Candida) [µg/mL] | Structure (SMILES) | IC50 (T98G (glioblastoma)) [µg/mL] | IC50 (HepG2 (hepatoma)) [µg/mL] | IC50 (LS-180 (colon cancer)) [µg/mL] | IC50 [1] [µg/mL] | IC50 (A375 (melanoma)) [µg/mL] | IC50 [2] [µg/mL] | melting point [°C]
183.21 ± 2.45 µg/mL (≈ 924 µM) | – | – | – | – | O=C1CCN1c1cc2ccccc2cn1 [L1, 1-(isoquinolin-3-yl)azetidin-2-one] | > 200 | > 200 | > 200 | > 200 | > 200 | > 200 | –
96.76 µg/mL and 96.67 ± 2.84 µg/mL | 250 (≈ 1100 µM) | 250 (≈ 1100 µM) | 125 (≈ 550 µM) | 125 to 250 (≈ 550 to 1100 µM) | CN1CCN(c2cc3ccccc3cn2)C1=O [L3, 1-(isoquinolin-3-yl)-3-methylimidazolidin-2-one] | > 200 | > 200 | > 200 | > 200 | > 200 | > 200 | –
108.59 ± 1.51 µg/mL (≈ 450 µM) | 1000 (≈ 4140 µM) | 1000 (≈ 4140 µM) | > 1000 | – | CCN1CCN(c2cc3ccccc3cn2)C1=O [L4, 1-ethyl-3-(isoquinolin-3-yl)imidazolidin-2-one] | > 200 | > 200 | > 200 | > 200 | > 200 | > 200 | 151 to 153
